Data from ChEMBL document CHEMBL1201862, “PubChem BioAssay data set” (2004).
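Cells were grown in 96-well plates and exposed to each compound for 48 hours at five concentrations; endpoints were interpolated linearly between bracketing concentrations, or set to the highest concentration if not reached. The concentration for 50% growth inhibition is given as GI50.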 Active and inactive are the calls of the source. Rule as the data show it: active = GI50 up to about 1.1 µM and inactive = higher.

What was measured:
Assay in all cases: NCI-60 cell line screen, 48 h
CCRF-CEM = test system: CCRF-CEM
EKVX = test system: EKVX
LOX IMVI = test system: LOX IMVI
OVCAR-5 = test system: OVCAR-5
SNB-19 = test system: SNB-19
NCI-H522 = test system: NCI-H522
TK-10 = test system: TK-10
SK-MEL-2 = test system: SK-MEL-2
DLD-1 = test system: DLD-1
NCI-H23 = test system: NCI-H23
K562 = test system: K562
KM-20L2 = test system: KM-20L2
Malme-3M = test system: Malme-3M
SK-OV-3 = test system: SK-OV-3
RPMI-8226 = test system: RPMI-8226
CAKI-1 = test system: CAKI-1
XF498 = test system: XF498
MOLT-4 = test system: MOLT-4
SK-MEL-5 = test system: SK-MEL-5
786-0 = test system: 786-0
SNB-78 = test system: SNB-78
DMS-114 = test system: DMS-114
OVCAR-8 = test system: OVCAR-8
HCC 2998 = test system: HCC 2998
HOP-92 = test system: HOP-92
HL-60 = test system: HL-60
U-251 = test system: U-251
HCT-15 = test system: HCT-15
SF-295 = test system: SF-295
IGROV-1 = test system: IGROV-1
KM12 = test system: KM12
NCI-H226 = test system: NCI-H226
SNB-75 = test system: SNB-75
HT-29 = test system: HT-29
UACC-62 = test system: UACC-62
SF-268 = test system: SF-268
RXF 631 = test system: RXF 631
RXF 393 = test system: RXF 393
M14 = test system: M14
SK-MEL-28 = test system: SK-MEL-28
A498 = test system: A498
HOP-18 = test system: HOP-18
HCT-116 = test system: HCT-116
SR = test system: SR
LXFL 529 = test system: LXFL 529
UACC-257 = test system: UACC-257
HOP-62 = test system: HOP-62
DMS-273 = test system: DMS-273
NCI-H460 = test system: NCI-H460
M19-MEL = test system: M19-MEL
A549 = test system: A549
OVCAR-3 = test system: OVCAR-3
COLO 205 = test system: COLO 205
UO-31 = test system: UO-31
SW-620 = test system: SW-620
ACHN = test system: ACHN
SN12C = test system: SN12C

Measured: GI50

C1=C(c2ccccc2)C(OC2Oc3ccccc3C=C2c2ccccc2)Oc2ccccc21 (configuration not stated)
inactive: CCRF-CEM > 100 µM | EKVX > 100 µM | LOX IMVI > 100 µM | OVCAR-5 > 100 µM | SNB-19 > 100 µM | NCI-H522 > 100 µM | TK-10 > 100 µM | SK-MEL-2 > 100 µM | DLD-1 > 100 µM | NCI-H23 > 100 µM | K562 > 100 µM | KM-20L2 > 100 µM | Malme-3M > 100 µM | SK-OV-3 > 100 µM | RPMI-8226 33.6 µM | CAKI-1 > 100 µM | XF498 > 100 µM | MOLT-4 > 100 µM | SK-MEL-5 > 100 µM | 786-0 > 100 µM | SNB-78 > 100 µM | DMS-114 > 100 µM | OVCAR-8 > 100 µM | HCC 2998 > 100 µM | HOP-92 > 100 µM | HL-60 > 100 µM | U-251 15.5 µM | SF-295 > 100 µM | IGROV-1 > 100 µM | KM12 > 100 µM | NCI-H226 > 100 µM | SNB-75 24.6 µM | HT-29 > 100 µM | UACC-62 > 100 µM | SF-268 > 100 µM | RXF 631 > 100 µM | RXF 393 > 100 µM | M14 > 100 µM | SK-MEL-28 > 100 µM | A498 > 100 µM | HOP-18 > 100 µM | HCT-116 > 100 µM | SR 33.6 µM | LXFL 529 > 100 µM | UACC-257 > 100 µM | HOP-62 > 100 µM | DMS-273 > 100 µM | NCI-H460 > 100 µM | M19-MEL > 100 µM | A549 > 100 µM | OVCAR-3 > 100 µM | COLO 205 > 100 µM | UO-31 > 100 µM | SW-620 31.3 µM | ACHN 26.1 µM | SN12C > 100 µM
> 100 µM: HCT-15
